Reference: publication PMC6199744, “Development of Chemical Proteomics for the Folateome and Analysis of the Kinetoplastid Folateome” (ACS Infectious Diseases, 2018)
Where two headings read alike, the source gives them in different places.

Tested on: T. brucei lysate proteins
Assay type: binding, Trypanosoma brucei
Details: for abundance relative to vehicle: X016405, bead mixture, free compound 100.0uM, Trypanosoma brucei

Nc1nc2cccc(-c3ccccc3)c2n1Cc1ccc(Cl)c(Cl)c1 [compound 3]
abundance relative to vehicle (protein TB427.02.1850): 0.84 | abundance relative to vehicle (protein TB427.06.4760): 0.94 | abundance relative to vehicle (protein TB427.07.3620): 0.78 | abundance relative to vehicle (protein TB427.08.1880): 1.20 | fold change - vehicle control (protein RHS6A (CZT00028360.1)): 0.89 | fold change - vehicle control (protein TB09.160.1250 HY[…], CONSERVED): 0.88 | fold change - vehicle control (protein TB09.160.3670 RIBOSOMAL PROTEIN S6, PUTATIVE): 0.98 | fold change - vehicle control (protein TB09.211.2630 60S RIBOSOMAL PROTEIN L23, PUTATIVE): 0.92 | fold change - vehicle control (protein TB09.211.4513 KIN[…] PROTEIN KMP-11): 1.1 | fold change - vehicle control (protein TB11.V4.0005 RIBONUCLEOSIDE-DIPHOSPHATE REDUCTASE SMALL CHAIN): 0.81 | fold change - vehicle control (protein TB11.01.0870 R[…] A, 51KDA SUBUNIT, PUTATIVE): 1.11 | fold change - vehicle control (protein TB11.01.2560 40S RIBOSOMAL PROTEIN SA, PUTATIVE): 0.92 | fold change - vehicle control (protein TB11.01.4880 HY[…], CONSERVED): 0.9 | fold change - vehicle control (protein TB11.01.7090 HY[…], CONSERVED): 0.87 | fold change - vehicle control (protein TB11.02.2510 GUANINE NUCLEOTIDE-BINDING BETA SUBUNIT-LIKE PROTEIN): 0.96 | fold change - vehicle control (protein TB11.02.4170 40S RIBOSOMAL PROTEIN S5, PUTATIVE): 0.92 | fold change - vehicle control (protein TB11.03.0250 C[…]): 1.22 | fold change - vehicle control (protein TB11.46.0009 HY[…], CONSERVED): 0.89 | fold change - vehicle control (protein TB427TMP.01.0620 HY[…], CONSERVED): 0.76 | fold change - vehicle control (protein TB427TMP.01.1475 40S RIBOSOMAL PROTEIN S27, PUTATIVE): 1.02 | fold change - vehicle control (protein TB427TMP.01.4280 HY[…], CONSERVED): 0.82 | fold change - vehicle control (protein TB427TMP.01.4650 HY[…], CONSERVED): 0.97 | fold change - vehicle control (protein TB427TMP.01.4810 HY[…], CONSERVED): 0.99 | fold change - vehicle control (protein TB427TMP.01.5680 HY[…], CONSERVED): 0.54 | fold change - vehicle control (protein TB427TMP.01.8390 HY[…], CONSERVED): 0.84 | fold change - vehicle control (protein TB427TMP.02.0230 HY[…], CONSERVED): 1.04 | fold change - vehicle control (protein TB427TMP.02.0460 NUCLEOPORIN): 0.82 | fold change - vehicle control (protein TB427TMP.02.1106 NUCLEOBASE/NUCLEOSIDE TRANSPORTER 8 1): 1.05 | fold change - vehicle control (protein TB427TMP.160.2050 ENDO-BETA-N-ACETYLGLUCOSAMINIDASE, PUTATIVE): 0.92 | fold change - vehicle control (protein TB427TMP.160.4310 GLUTAMATE DEHYDROGENASE): 0.97 | fold change - vehicle control (protein TB427TMP.160.4450 40S RIBOSOMAL PROTEIN S3, PUTATIVE): 0.97 | fold change - vehicle control (protein TB427TMP.160.4630 HY[…], CONSERVED): 0.86 | fold change - vehicle control (protein TB427TMP.160.5200 HY[…], CONSERVED): 0.69 | fold change - vehicle control (protein TB427TMP.160.5670 HY[…], CONSERVED): 0.83 | fold change - vehicle control (protein TB427TMP.211.0930 POLYADENYLATE-BINDING PROTEIN 1): 0.97 | fold change - vehicle control (protein TB427TMP.211.1750 MIT[…] PROTEIN, PUTATIVE): 0.88 | fold change - vehicle control (protein TB427TMP.211.3510 ATP-DEPENDENT DEAD/H RNA HELICASE, PUTATIVE): 1.06 | fold change - vehicle control (protein TB427TMP.211.4540 RNA-BINDING PROTEIN, PUTATIVE): 1.05 | fold change - vehicle control (protein TB427TMP.244.2840 HY[…], CONSERVED): 0.92 | fold change - vehicle control (protein TB427.01.1240 CYTIDINE TR[…], PUTATIVE): 0.84 | fold change - vehicle control (protein TB427.01.2570 COATOMER BETA SUBUNIT): 0.73 | fold change - vehicle control (protein TB427.01.3910 HY[…], CONSERVED): 0.78 | fold change - vehicle control (protein TB427.02.450 RETRO[…] SPOT (RHS) PROTEIN, PUTATIVE): 0.81 | fold change - vehicle control (protein TB427.02.6240): 1.08 | fold change - vehicle control (protein TB427.04.3350 HY[…], CONSERVED): 0.72 | fold change - vehicle control (protein TB427.04.3890 ATP-DEPENDENT RNA HELICASE, PUTATIVE): 0.92 | fold change - vehicle control (protein TB427.04.4870 AMINO ACID TRANSPORTER, PUTATIVE): 0.87 | fold change - vehicle control (protein TB427.04.750 50S RIBOSOMAL PROTEIN L7AE, PUTATIVE): 1.12 | fold change - vehicle control (protein TB427.04.960 HY[…], CONSERVED): 0.88 | fold change - vehicle control (protein TB427.05.1490 HY[…], CONSERVED): 0.8 | fold change - vehicle control (protein TB427.05.1780 HY[…], CONSERVED): 0.77 | fold change - vehicle control (protein TB427.05.3030 INTR[…] PROTEIN IFT122, PUTATIVE): 0.89 | fold change - vehicle control (protein TB427.05.4560 GUANINE DEAMINASE, PUTATIVE): 0.7 | fold change - vehicle control (protein TB427.06.2150 CELL DIVISION CYCLE PROTEIN 16, PUTATIVE): 0.83 | fold change - vehicle control (protein TB427.06.3110 PROTEIN KINASE, PUTATIVE (CRK11)): 0.87 | fold change - vehicle control (protein TB427.06.5110 DAMAGE-SPECIFIC DNA BINDING PROTEIN, PUTATIVE): 0.98 | fold change - vehicle control (protein TB427.07.2670 HY[…], CONSERVED): 3.19 | fold change - vehicle control (protein TB427.07.3040 HY[…], CONSERVED): 0.98 | fold change - vehicle control (protein TB427.07.3530 HY[…], CONSERVED): 0.87 | fold change - vehicle control (protein TB427.07.4970 GLUTAMINE SYNTHETASE, PUTATIVE): 0.9 | fold change - vehicle control (protein TB427.07.5560 GLUCOSAMINE-FRUCTOSE-6-PHOSPHATE AMINOTRANSFERASE, PUTATIVE): 0.84 | fold change - vehicle control (protein TB427.07.5890 HY[…], CONSERVED): 0.79 | fold change - vehicle control (protein TB427.07.7070 HY[…], CONSERVED): 0.62 | fold change - vehicle control (protein TB427.07.7460 HY[…], CONSERVED): 0.91 | fold change - vehicle control (protein TB427.08.1500 HY[…], CONSERVED): 0.95 | fold change - vehicle control (protein TB427.08.1840 HY[…], CONSERVED): 0.95 | fold change - vehicle control (protein TB427.08.1960 HY[…], CONSERVED): 0.78 | fold change - vehicle control (protein TB427.08.2080 HY[…], CONSERVED): 1.08 | fold change - vehicle control (protein TB427.08.3750 NUCLEOLAR PROTEIN, PUTATIVE): 0.92 | fold change - vehicle control (protein TB427.08.6390 LYSOPHOSPHOLIPASE, PUTATIVE): 1.03 | fold change - vehicle control (protein TB427.10.10610 PROTEIN TYROSINE PHOSPHATASE, PUTATIVE): 0.69 | fold change - vehicle control (protein TB427.10.1100 60S RIBOSOMAL PROTEIN L9, PUTATIVE): 0.86 | fold change - vehicle control (protein TB427.10.12740): 0.9 | fold change - vehicle control (protein TB427.10.14660 HY[…], CONSERVED): 1.05 | fold change - vehicle control (protein TB427.10.15720 […]-ATP-ASE SUBUNIT 9): 0.82 | fold change - vehicle control (protein TB427.10.2440 METACASPASE MCA4): 0.84 | fold change - vehicle control (protein TB427.10.2900 IMPORTIN BETA-1 SUBUNIT, PUTATIVE): 0.79 | fold change - vehicle control (protein TB427.10.3470 HY[…], CONSERVED): 0.74 | fold change - vehicle control (protein TB427.10.4110 60S RIBOSOMAL PROTEIN L30): 0.91 | fold change - vehicle control (protein TB427.10.4610 […]-MANNOSE SYNTHASE, PUTATIVE): 0.85 | fold change - vehicle control (protein TB427.10.5250 HY[…], CONSERVED): 0.82 | fold change - vehicle control (protein TB427.10.5840 T[…] 1-BETA, PUTATIVE): 0.65 | fold change - vehicle control (protein TB427.10.7410 SUCCINYL-COA LIGASE GDP-FORMING] BETA-CHAIN, PUTATIVE): 0.85 | fold change - vehicle control (protein TB927.10.12960 RAS-RELATED PROTEIN RAB-5): 0.9 | fold change - vehicle control (protein TB927.10.14800 PROTEIN KINASE, PUTATIVE): 1.09 | fold change - vehicle control (protein TB927.10.2980 […]-ATPASE SUBUNIT 11): 1.07 | fold change - vehicle control (protein TB927.10.3660 ASPARTATE AMINOTRANSFERASE): 0.86 | fold change - vehicle control (protein TB927.10.4570 […] 2): 0.66 | fold change - vehicle control (protein TB927.10.5140 PROTEIN KINASE, PUTATIVE): 1.06 | fold change - vehicle control (protein TB927.10.560 40S RIBOSOMAL PROTEINS S11, PUTATIVE): 0.95 | fold change - vehicle control (protein TB927.10.6510 CHAPERONIN HSP60, MIT[…]): 0.86 | fold change - vehicle control (protein TB927.3.1840 3-OXO-5-ALPHA-STEROID 4-DEHYDROGENASE, PUTATIVE): 0.92 | fold change - vehicle control (protein TB927.3.3780 TRYPAREDOXIN): 0.85 | fold change - vehicle control (protein TB927.3.740 HY[…], CONSERVED): 0.91 | fold change - vehicle control (protein TB927.4.2740 HY[…], CONSERVED): 1.05 | fold change - vehicle control (protein TB927.4.3590 T[…] 1-BETA, PUTATIVE): 0.69 | fold change - vehicle control (protein TB927.6.4320 HY[…], CONSERVED): 0.75 | fold change - vehicle control (protein TB927.7.2550 […] SUBUNIT 5): 0.86 | fold change - vehicle control (protein TB927.7.2980 HY[…], CONSERVED): 0.75
